Data: the CheMixHub viscosity set

Test: xn = mol fraction of the nth substance listed

c1ccccc1 + CC#N
101 kPa
Conditions	viscosity [mPa·s]
298.15 K, x2 = 0.0325	0.5825
298.15 K, x2 = 0.0341	0.58
298.15 K, x2 = 0.0416	0.5745
298.15 K, x2 = 0.0854	0.574
298.15 K, x2 = 0.142	0.5155
298.15 K, x2 = 0.2097	0.493
298.15 K, x2 = 0.2578	0.4835
298.15 K, x2 = 0.3076	0.479
298.15 K, x2 = 0.3588	0.459
298.15 K, x2 = 0.4192	0.4365
298.15 K, x2 = 0.4751	0.4295
298.15 K, x2 = 0.5205	0.4045
298.15 K, x2 = 0.5786	0.394
298.15 K, x2 = 0.6344	0.388
298.15 K, x2 = 0.6908	0.375
298.15 K, x2 = 0.7377	0.379
298.15 K, x2 = 0.7901	0.369
298.15 K, x2 = 0.7943	0.3555
298.15 K, x2 = 0.8416	0.3535
298.15 K, x2 = 0.8962	0.3455
298.15 K, x2 = 0.9472	0.3275
308.15 K, x1 = 0.1018	0.3278
308.15 K, x1 = 0.2042	0.3407
308.15 K, x1 = 0.303	0.3576
308.15 K, x1 = 0.4008	0.378
308.15 K, x1 = 0.4892	0.3939
308.15 K, x1 = 0.5921	0.4163
308.15 K, x1 = 0.6906	0.4413
308.15 K, x1 = 0.8017	0.4762
308.15 K, x1 = 0.8951	0.4954

O=[N+]([O-])c1ccccc1 + CCC(C)O
viscosity [mPa·s], 100 kPa
Conditions	x1 = 0.081	x1 = 0.16	x1 = 0.24	x1 = 0.35	x1 = 0.4949	x1 = 0.56	x1 = 0.65	x1 = 0.74	x1 = 0.8205	x1 = 0.9399
293.15 K	3.138	2.694	2.349	2.041	1.854	1.838	1.859	1.915	1.975	2.078
298.15 K	2.591	2.246	1.983	1.74	1.619	1.612	1.647	1.719	1.78	1.861
303.15 K	2.232	1.989	1.801	1.632	1.528	1.521	1.539	1.58	1.638	1.708
308.15 K	1.905	1.731	1.598	1.476	1.408	1.405	1.422	1.459	1.498	1.577
313.15 K	1.627	1.489	1.384	1.289	1.248	1.252	1.275	1.32	1.379	1.457
318.15 K	1.411	1.309	1.233	1.169	1.147	1.155	1.18	1.224	1.274	1.351
323.15 K	1.233	1.159	1.104	1.058	1.044	1.055	1.081	1.122	1.168	1.253

CCCCCO + CCCCO
viscosity [mPa·s], 101.33 kPa
Conditions	x2 = 0.1315	x2 = 0.278	x2 = 0.4762	x2 = 0.5662	x2 = 0.8222	x2 = 0.9381
293.15 K	3.867	3.7	3.489	3.392	3.127	3.013
298.15 K	3.353	3.232	3.038	2.959	2.738	2.642

CCOCCOCCO + CCCN
298.15 K, 101 kPa
Conditions	viscosity [mPa·s]
x1 = 0.0118	0.374
x1 = 0.0312	0.412
x1 = 0.0523	0.448
x1 = 0.0786	0.495
x1 = 0.099	0.533
x1 = 0.1259	0.59
x1 = 0.1728	0.701
x1 = 0.2037	0.789
x1 = 0.2298	0.868
x1 = 0.2646	0.986
x1 = 0.3048	1.133
x1 = 0.3392	1.272
x1 = 0.4055	1.566
x1 = 0.4419	1.745
x1 = 0.4758	1.917
x1 = 0.5112	2.092
x1 = 0.5558	2.317
x1 = 0.5903	2.488
x1 = 0.633	2.695
x1 = 0.6711	2.869
x1 = 0.7054	3.013
x1 = 0.7412	3.154
x1 = 0.7802	3.297
x1 = 0.8328	3.464
x1 = 0.8664	3.549
x1 = 0.8935	3.616
x1 = 0.9187	3.674
x1 = 0.9388	3.712
x1 = 0.9709	3.779

C1CCC2CCCCC2C1 (centres undefined) + C1CCCCC1
298.15 K, 101 kPa
Conditions	viscosity [mPa·s]
x1 = 0.1473	1.061
x1 = 0.3151	1.26
x1 = 0.5054	1.48
x1 = 0.7334	1.77

CC=Cc1ccc(O)c(OC)c1 + CCCCCOC(C)=O
298.15 K, 101 kPa
Conditions	viscosity [mPa·s]
x1 = 0.062	0.92
x1 = 0.119	1.06

c1ccccc1 + CN(C)C=O
298.15 K
Conditions	viscosity [mPa·s]
101 kPa, x1 = 0.0257	0.799
101 kPa, x1 = 0.0509	0.795
101 kPa, x1 = 0.1031	0.783
101 kPa, x1 = 0.1578	0.765
101 kPa, x1 = 0.2083	0.759
101 kPa, x1 = 0.2579	0.75
101 kPa, x1 = 0.3129	0.7455
101 kPa, x1 = 0.3651	0.739
101 kPa, x1 = 0.4202	0.725
101 kPa, x1 = 0.469	0.711
101 kPa, x1 = 0.5167	0.7175
101 kPa, x1 = 0.5779	0.7
101 kPa, x1 = 0.6247	0.697
101 kPa, x1 = 0.6758	0.6825
101 kPa, x1 = 0.7167	0.671
101 kPa, x1 = 0.7855	0.653
101 kPa, x1 = 0.8262	0.643
101 kPa, x1 = 0.8944	0.6255
101 kPa, x1 = 0.9372	0.615
101 kPa, x1 = 0.9409	0.614
101 kPa, x1 = 0.9761	0.605
101.33 kPa, x1 = 0.1225	0.7645
101.33 kPa, x1 = 0.2494	0.7375
101.33 kPa, x1 = 0.4823	0.6925
101.33 kPa, x1 = 0.6236	0.6672
101.33 kPa, x1 = 0.7499	0.6477
101.33 kPa, x1 = 0.8733	0.6245

C=C(C)C(=O)O + O=C1CCCCC1
viscosity [mPa·s], 101 kPa
Conditions	x2 = 0.1	x2 = 0.2	x2 = 0.3	x2 = 0.4	x2 = 0.5	x2 = 0.5999	x2 = 0.7	x2 = 0.8	x2 = 0.9
298.15 K	1.369	1.528	1.659	1.809	1.901	1.949	1.999	2.045	2.037
308.15 K	1.159	1.281	1.389	1.508	1.583	1.616	1.651	1.683	1.684
318.15 K	0.999	1.101	1.183	1.275	1.33	1.359	1.395	1.424	1.422

ClC(Cl)=C(Cl)Cl + CCOCCO
viscosity [mPa·s], 101.33 kPa
Conditions	x1 = 0.1174	x1 = 0.2104	x1 = 0.323	x1 = 0.4392	x1 = 0.5276	x1 = 0.6168	x1 = 0.7085	x1 = 0.8053	x1 = 0.9054
303.15 K	1.513	1.396	1.272	1.149	1.065	0.992	0.926	0.869	0.822
313.15 K	1.201	1.132	1.049	0.968	0.91	0.857	0.809	0.769	0.739
